The series relates to TLR7 and TLR9. The series is described as follows: Tape stripping skin lesions in lupus prone (NZBxNZW)F1 mice. It is filed as in vivo. More on the design: key to Dermal inflammation: graded on a scale of 1 to 3. Particulars: for Dermal inflammation / Epidermis thickness / Intraepithelial inflammation / Panniculum inflammation / Ulceration: histological score. As for the experimental part: SEQ ID NO:42 (IRS) was used starting the day of the tape stripping during the entire course of the experiments (FIGS. 29A,D,E) or starting at 4 days post injury when the disease is already established (FIGS. 30A,D,E). In both cases SEQ ID NO:42 (IRS) (100 μg; s. c.) was administered twice a week. Also described is the timing of PDC depletion experiments described in FIGS. 29A,F,G. Depleting antibody to PDC anti-120G8 (250 μg; i.p.) were given at day −2 and day 0, eight hours before tape stripping and then given twice a week for the entire duration of the experiment. Experiments were stopped in between 15-23 days after initial tape stripping depending on the progression of the lesions in the untreated groups.
C57BL/6 and 129 mice were purchased from Charles River Laboratories. (NZBxNZW)F1 female mice were purchased from Jackson Laboratories and used at 18-22 weeks of age. MyD88/KO and TLR9/KO mouse colonies were maintained at Simonsen Laboratories and used with age matched C57BL/6 wild type controls at 8-12 weeks of age. Tape stripping was performed after shaving the dorsal area (3×3 cm) using 10 strokes with duct tape. IRS was administered just before tape stripping SC at a distant site. Alternatively, in (NZBxNZW)F1 mice, IRS was administered long term. In certain experiments PDC and neutrophils were depleted with 250 μg of antibody given IP at day −2 and day 0, eight hours before tape stripping. Anti-120G8 (Imgenex) was used for depletion of PDC (Asselin-Paturel et al., 2003), and anti-GR1-LY6G (clone 1A8; Biolegend) was used for depletion of neutrophils (Daley et al., 2008). […] In experiments where PDC were depleted, long term 120G8 depleting antibody was administered. Experiments in (NZBxNZW)F1 were terminated between 15-23 days after initial tape stripping, depending on the progression of the lesions in the untreated groups in each experiment. Percentage of area with open lesions in (NZBxNZW)F1 and normal mice was evaluated with Nikon software NIS-elements.
The biopsy specimens were fixed in formalin and embedded in paraffin. Sections were stained with hematoxylin-eosin. Multiple skin sections of 12-30 mice per group were evaluated in a blinded fashion. The following histological features were assessed and graded on a scale of 1 to 3: i) epidermis thickness ii) degree of ulceration iii) intraepithelial inflammation, iv) dermal inflammation, and v) panniculum inflammation. Histological grading was assigned as follows: 0, normal skin architecture, few dermal leukocytes and regular adnexa; 1, mild inflammation, slight epidermal hyperplasia and signs of dermal fibroblast proliferation; 2, moderate inflammation, noticeable epidermal hyperplasia (two- to four-fold increase in epithelial thickness) with hyperkeratosis, significant leukocyte/neutrophil-granulocyte dermal infiltrate with few macrophages, moderate fibrosclerosis of the dermis, reduction in the number of adnexa, slight degenerative changes of the hypodermic adipose tissue; 3, severe inflammation, marked epidermal hyperplasia (>four-fold increase in epithelial thickness) with hyperkeratosis, formation of keratin-filled craters and cysts, diffuse discontinuity of the epidermal layer (ulceration), extensive dermal infiltrate with abundant neutrophils and macrophages, pronounced dermal fibrosclerosis, vanishing of adnexa and evident degenerative changes of the hypodermic adipose tissue. The different parameters were scored separately and summed to obtained a total disease score (Table 22-1). Statistical significance among groups was calculated with a Mann-Whitney U-test.

“Also recorded” adds a separate entry of the source.

“5′-TGCTCCTGGAGGGGTTGT-3′ (DNA, backbone not given here) [SEQ ID NO:42]”: the “induction of IFN-regulated and pro-inflammatory genes” value ((NZBxNZW)F1, single injection prior to tape stripping, 24 hr) was “efficiently inhibited this gene induction; also recorded: can be inhibited”. Moreover, where the note is “IRS (pre-injury)”, the “Total Disease Score” value is given as 3.2 ± 0.5, the Dermal inflammation is reported as 1.3 ± 0.2, the Epidermis thickness is listed as 0.7 ± 0.2 and the Intraepithelial inflammation came to 0.2 ± 0.2. Under “IRS (pre-injury)”, the Panniculum inflammation is reported as 0.8 ± 0.1 and the Ulceration was determined as 0.0 ± 0.0. Further, under “IRS (therapeutic)”, the “Total Disease Score” value was determined as 3.5 ± 0.4, the Dermal inflammation is recorded as 1.2 ± 0.1, the Epidermis thickness is given as 1.0 ± 0.2 and the Intraepithelial inflammation turned out to be 0.2 ± 0.2. For the same substance, where the note is “IRS (therapeutic)”, the Panniculum inflammation is 1.0 ± 0.0 and the Ulceration is reported as 0.2 ± 0.1. Also, for the setting “IRS before skin injury and for the duration, day 15-23”, the “lesions, share of the stripped area” value is “less than 15%”. Moreover, the “surface still covered by open lesions” value (IRS beginning at day 4, day 15-23) amounted to 10%. Moreover, under “therapeutic treatment from day 4”, the “CLE-like phenotype / healing of established lesions” value is listed as “accelerated healing; also recorded: significantly ameliorated CLE-like phenotype”. Moreover, the “disease onset (skin appearance, histology, gene signatures)” value (treatment from the day of tape stripping) is on record as “able to prevent disease onset”.

The values above are taken from patent US8940310B2, “Methods of treatment using TLR7 and/or TLR9 inhibitors” (Dynavax Technologies Corporation, priority 2010, dated 2015).
